{"source": "patent US8071353B2", "about": "“Genetic remodeling in Bifidobacterium” (Nestec S.A., priority 2007, dated 2011)", "key": {"[1]": {"test_system": "Bifidobacterium animalis subsp. lactis strain NCC 362 (wild-type)", "experiment": "E-TEST tetracycline MIC determination, FIG. 3 legend wild-type strain", "assay_type": "cell-based", "settings": "FIG. 3 left panel, read-out: Resistance to tetracycline (MIC)", "from_the_text": "(§1) In certain embodiments, the wild-type cell is resistant to a higher concentration of the antibiotic than the cell of the invention, i.e. the cell with the deleted gene. Sensitivity of a microbial cell to a particular antibiotic may be measured in any of a variety of manners. One convenient means for measuring antibiotic sensitivity to use disk diffusion assays, for example the E-test (commercially produced by AB BIODISK). The E-test system uses a predefined gradient of antibiotic concentrations on a plastic strip and can be used to determine the exact Minimum Inhibitory Concentration (MIC) of an antibiotic for a particular organism.\n(§2) A commercial E-TEST (AB BIODISK) was used to determine the MIC for tetracycline of each strain."}, "[2]": {"test_system": "B. animalis subsp. lactis strain NCC 9034 (tetW deleted)", "experiment": "E-TEST (AB BIODISK) tetracycline MIC determination, tetW deletion strain", "assay_type": "cell-based, Bifidobacterium animalis subsp. lactis", "from_the_text": "as §1\n(§3) In certain embodiments, the wild-type cell is resistant to a higher concentration of the antibiotic than the cell that results from the methods provided. Disk diffusion assays and related sensitivity tests such as the E-test (AB BIODISK) are preferred ways of measuring the sensitivity of a cell to an antibiotic. The Minimum Inhibitory Concentration (MIC), however determined, of an antibiotic for a particular organism is a convenient way to compare relative sensitivities.\nas §2"}, "[3]": {"test_system": "B. animalis subsp. lactis wild-type strain NCC 2818", "experiment": "E-TEST (AB BIODISK) tetracycline MIC determination, wild-type strain", "assay_type": "cell-based, Bifidobacterium animalis subsp. lactis", "settings": "Bifidobacterium animalis, strain NCC 2818 (wild-type, operable tetW)", "from_the_text": "as §1, §3, §2"}}, "data": [{"smiles": "CN(C)[C@@H]1C(O)=C(C(N)=O)C(=O)[C@@]2(O)C(O)=C3C(=O)c4c(O)cccc4[C@@](C)(O)[C@H]3C[C@@H]12", "note": "[tetracycline]", "values": [{"measurement": "MIC", "setting": "[1]", "value": "~16", "unit": "µg/mL"}, {"measurement": "MIC", "setting": "[2]; Bifidobacterium animalis, read-out: MIC for tetracycline", "value": "~0.3", "unit": "µg/mL"}, {"measurement": "times more sensitive to tetracycline than parent wild-type strain NCC 2818", "setting": "[2]; NCC 9034 versus NCC 2818, ratio of E-TEST MICs", "value": "about 50 times"}, {"measurement": "MIC", "setting": "[3]", "value": 16, "unit": "µg/mL"}]}]}
